In ChEMBL document CHEMBL2073817 (J Pharmacol Exp Ther, 2002) one finds activity, Ki and Km data, which are given here for eleven molecules.

Series [1] addresses T1, OAT4 (Solute carrier family 22 member 11) (Homo sapiens, UniProt Q9NSA0).
T1 sequence (Q9NSA0 whole entry): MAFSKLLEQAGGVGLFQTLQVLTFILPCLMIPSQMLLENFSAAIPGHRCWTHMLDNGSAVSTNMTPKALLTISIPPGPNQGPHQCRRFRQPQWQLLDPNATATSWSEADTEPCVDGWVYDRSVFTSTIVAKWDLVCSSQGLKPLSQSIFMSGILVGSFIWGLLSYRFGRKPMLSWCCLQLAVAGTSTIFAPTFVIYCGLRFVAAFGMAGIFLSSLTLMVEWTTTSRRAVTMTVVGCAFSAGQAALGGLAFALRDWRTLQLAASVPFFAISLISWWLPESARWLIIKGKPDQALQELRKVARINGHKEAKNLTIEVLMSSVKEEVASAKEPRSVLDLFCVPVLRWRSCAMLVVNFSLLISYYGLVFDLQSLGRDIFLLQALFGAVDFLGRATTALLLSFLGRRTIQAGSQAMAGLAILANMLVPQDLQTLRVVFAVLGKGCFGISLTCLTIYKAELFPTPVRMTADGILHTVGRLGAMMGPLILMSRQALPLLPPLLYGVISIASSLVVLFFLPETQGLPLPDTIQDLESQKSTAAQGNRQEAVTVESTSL
In words: TP_TRANSPORTER: inhibition of MTX uptake (MTX: 1 uM, Ibuprofen: 1000 uM) in OAT4-expressing S2 cells. Particulars: probe MTX, read-out: Activity. The class given is functional, cell-based. Also on record: scale not given: the % may be the effect or the level left.

The target of series [2] is T1, OAT4 (Solute carrier family 22 member 11). In words: TP_TRANSPORTER: inhibition of MTX uptake (MTX: 1 uM, Indomethacin: 500 uM) in OAT4-expressing S2 cells. Details: scale not given: the % may be the effect or the level left. Particulars: probe MTX, read-out: Activity. The format is functional, cell-based.
Series [3] deals with T2, Organic anion transporter 3 (Homo sapiens, UniProt Q8TCC7).
T2 sequence (Q8TCC7 whole entry): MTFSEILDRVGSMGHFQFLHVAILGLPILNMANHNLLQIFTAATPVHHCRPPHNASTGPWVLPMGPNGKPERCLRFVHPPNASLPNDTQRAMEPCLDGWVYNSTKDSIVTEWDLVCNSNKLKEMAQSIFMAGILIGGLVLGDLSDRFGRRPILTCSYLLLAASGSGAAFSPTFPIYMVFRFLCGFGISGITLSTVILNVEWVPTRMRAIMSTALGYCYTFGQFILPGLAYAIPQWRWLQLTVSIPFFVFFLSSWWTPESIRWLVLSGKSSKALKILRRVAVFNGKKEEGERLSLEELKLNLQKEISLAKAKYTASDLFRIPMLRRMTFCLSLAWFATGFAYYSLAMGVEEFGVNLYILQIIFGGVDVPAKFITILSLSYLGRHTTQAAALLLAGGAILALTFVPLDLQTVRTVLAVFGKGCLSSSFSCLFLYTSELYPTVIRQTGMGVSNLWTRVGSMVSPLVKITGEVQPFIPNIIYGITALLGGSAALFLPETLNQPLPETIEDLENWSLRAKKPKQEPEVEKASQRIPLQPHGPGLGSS
In words: TP_TRANSPORTER: inhibition of MTX uptake in OAT3-expressing S2 cells. The class given is functional, cell-based.

In series [4] the target is T3, OAT1 (Solute carrier family 22 member 6) (Homo sapiens, UniProt Q4U2R8).
T3 sequence (Q4U2R8 whole entry): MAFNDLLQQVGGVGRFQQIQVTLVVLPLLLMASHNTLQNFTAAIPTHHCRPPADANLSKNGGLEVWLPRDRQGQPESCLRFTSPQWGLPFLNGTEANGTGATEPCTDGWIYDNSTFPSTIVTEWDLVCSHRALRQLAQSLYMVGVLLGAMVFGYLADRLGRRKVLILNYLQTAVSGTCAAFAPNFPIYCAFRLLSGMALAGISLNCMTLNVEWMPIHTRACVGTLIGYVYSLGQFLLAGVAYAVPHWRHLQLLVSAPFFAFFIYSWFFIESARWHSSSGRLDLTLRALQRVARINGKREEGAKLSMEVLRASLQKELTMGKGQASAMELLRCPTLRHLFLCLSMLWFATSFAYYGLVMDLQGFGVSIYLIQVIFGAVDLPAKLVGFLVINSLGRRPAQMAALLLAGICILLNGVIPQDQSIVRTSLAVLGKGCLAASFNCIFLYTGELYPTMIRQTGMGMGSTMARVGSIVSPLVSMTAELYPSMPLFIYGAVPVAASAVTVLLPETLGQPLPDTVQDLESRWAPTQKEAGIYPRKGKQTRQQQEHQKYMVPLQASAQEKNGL
In words: TP_TRANSPORTER: inhibition of MTX uptake (MTX: 1 uM, Indomethacin: 500 uM) in OAT1-expressing S2 cells. The format is functional, cell-based. Details: scale not given: the % may be the effect or the level left. The following applies: mouse, probe MTX, read-out: Activity.

For series [5], the target named is T3, OAT1 (Solute carrier family 22 member 6). In words: TP_TRANSPORTER: inhibition of MTX uptake (MTX: 1 uM, Ketoprofen: 1000 uM) in OAT1-expressing S2 cells. The format is functional, cell-based. Details: scale not given: the % may be the effect or the level left. The following applies: probe MTX, read-out: Activity.
The target of series [6] is T1, OAT4 (Solute carrier family 22 member 11). In words: TP_TRANSPORTER: inhibition of MTX uptake (MTX: 1 uM, Ketoprofen: 1000 uM) in OAT4-expressing S2 cells. The class given is functional, cell-based. The following applies: mouse, probe MTX, read-out: Activity. Details: scale not given: the % may be the effect or the level left.
Series [7] has the same target. Briefly: TP_TRANSPORTER: inhibition of MTX uptake (MTX: 1 uM, PCG: 1000 uM) in OAT4-expressing S2 cells. The format is functional, cell-based. Particulars: mouse, probe MTX, read-out: Activity. Details: scale not given: the % may be the effect or the level left.
Series [8] has the same target. Briefly: TP_TRANSPORTER: inhibition of MTX uptake (MTX: 1 uM, Phenylbutazone: 1000 uM) in OAT4-expressing S2 cells. The format is functional, cell-based. Details: scale not given: the % may be the effect or the level left. Particulars: probe MTX, read-out: Activity.
The target in series [9] is T3, OAT1 (Solute carrier family 22 member 6). In words: TP_TRANSPORTER: inhibition of MTX uptake (MTX: 1 uM, Phenylbutazone: 1000 uM) in OAT1-expressing S2 cells. The class given is functional, cell-based. Also on record: scale not given: the % may be the effect or the level left. Particulars: probe MTX, read-out: Activity.
Series [10] has as its target T1, OAT4 (Solute carrier family 22 member 11). Briefly: TP_TRANSPORTER: inhibition of MTX uptake (MTX: 1 uM, Piroxicam: 1000 uM) in OAT4-expressing S2 cells. The format is functional, cell-based. Also on record: scale not given: the % may be the effect or the level left. Particulars: mouse, probe MTX, read-out: Activity.
Series [11] shares this target. In words: TP_TRANSPORTER: inhibition of MTX uptake (MTX: 1 uM, Probenecid: 1000 uM) in OAT4-expressing S2 cells. The class given is functional, cell-based. Details: scale not given: the % may be the effect or the level left. The following applies: probe MTX, read-out: Activity.
Substrate in series [12]: CN(Cc1cnc2nc(N)nc(N)c2n1)c1ccc(C(=O)N[C@@H](CCC(=O)O)C(=O)O)cc1
Briefly: cells, lysate or membranes named.

Substrate in series [13]: CN(Cc1cnc2nc(N)nc(N)c2n1)c1ccc(C(=O)N[C@@H](CCC(=O)O)C(=O)O)cc1
Briefly: TP_TRANSPORTER: uptake in OAT1-expressing S2 cells. The format is functional, cell-based.

As to `CC(C)Cc1ccc(C(C)C(=O)O)cc1` (centres undefined) [IBUPROFEN], the activity at 1000 µM in series [1] is 67.8%.

In the case of `COc1ccc2c(c1)c(CC(=O)O)c(C)n2C(=O)c1ccc(Cl)cc1` [INDOMETHACIN], the values for the activity at 500 µM in series [2] and in series [4] were 60.9% and 60.6%, respectively. Also, the affinity in series [3], expressed as Ki, was 5.95 µM.

Regarding `CC(C(=O)O)c1cccc(C(=O)c2ccccc2)c1` (centres undefined) [KETOPROFEN], the activity at 1000 µM in [5] was found to be 53.4%; in series [6], 81%. Further, the Ki (commonly the equilibrium dissociation constant of an inhibitor or competing ligand from its target) in [3] stood at 1160 µM.

As for `CC1(C)S[C@@H]2[C@H](NC(=O)Cc3ccccc3)C(=O)N2[C@H]1C(=O)O` [PENICILLIN G], in series [7], the activity at 1000 µM amounted to 79.7%. This molecule also showed a Ki in series [3] of 97.6 µM.

In the case of `CCCCC1C(=O)N(c2ccccc2)N(c2ccccc2)C1=O` [PHENYLBUTAZONE], the activity at 1000 µM in series [8] stood at 55.7%; in [9] it was 30%. This molecule returned a Ki in series [3] of 34.7 µM.

As to `CN1C(C(=O)Nc2ccccn2)=C(O)c2ccccc2S1(=O)=O` [PIROXICAM], the activity at 1000 µM in [10] worked out at 62%. Also, the affinity in [3], expressed as Ki, was 1200 µM.

On to `CCCN(CCC)S(=O)(=O)c1ccc(C(=O)O)cc1` [PROBENECID], for which the activity at 1000 µM in series [11] was 81.6%.

In series [3], `O=C(O)c1ccccc1O` [SALICYLIC ACID] returned an inhibitory constant (Ki) of 1020 µM.

B1: Solute carrier family 22 member 6 (Homo sapiens) (protein)
chain: T3 sequence (Q4U2R8 whole entry)
In the case of B1, the Km – broadly, the substrate concentration at which the rate is half of its maximum – in series [12] turned out to be 554 µM.

B2: Organic anion transporter 3 (Homo sapiens) (protein)
chain: T2 sequence (Q8TCC7 whole entry)
Regarding B2, in [13], the Km turned out to be 21.1 µM.

B3: Solute carrier family 22 member 11 (Homo sapiens) (protein)
chain: T1 sequence (Q9NSA0 whole entry)
In the case of B3, the Km in series [13] came to 17.8 µM.
